# From patent US9902702B2, “Spirocycloheptanes as inhibitors of rock” (BRISTOL-MYERS SQUIBB COMPANY, priority 2014, dated 2018)
# pIC50: −log10 of the molar value.
# Target: ROCK2 (Homo sapiens, UniProt O75116)
# Assay: ROCK assay: phosphorylation of FITC peptide substrate, LABCHIP 3000 mobility shift
# Assay type: biochemical
# Settings: 5 μM ATP, 1.5 μM peptide substrate; read-out: ROCK2 Activity (ROCK IC50 range)
# Outline: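 Rho kinase variant phosphorylates 1.5 μM FITC-AHA-AKRRRLSSLRA-OH with 5 μM ATP in 20 mM HEPES pH 7.5, 20 mM MgCl2, 0.015% Brij-35, 4 mM DTT, DMSO <2%. EDTA stops the reaction, and phospho and non-phospho peptides are resolved by LabChip 3000 mobility shift. IC50 from dose-response curve fit.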
# Chain of ROCK2 (O75116 whole entry, species assumed): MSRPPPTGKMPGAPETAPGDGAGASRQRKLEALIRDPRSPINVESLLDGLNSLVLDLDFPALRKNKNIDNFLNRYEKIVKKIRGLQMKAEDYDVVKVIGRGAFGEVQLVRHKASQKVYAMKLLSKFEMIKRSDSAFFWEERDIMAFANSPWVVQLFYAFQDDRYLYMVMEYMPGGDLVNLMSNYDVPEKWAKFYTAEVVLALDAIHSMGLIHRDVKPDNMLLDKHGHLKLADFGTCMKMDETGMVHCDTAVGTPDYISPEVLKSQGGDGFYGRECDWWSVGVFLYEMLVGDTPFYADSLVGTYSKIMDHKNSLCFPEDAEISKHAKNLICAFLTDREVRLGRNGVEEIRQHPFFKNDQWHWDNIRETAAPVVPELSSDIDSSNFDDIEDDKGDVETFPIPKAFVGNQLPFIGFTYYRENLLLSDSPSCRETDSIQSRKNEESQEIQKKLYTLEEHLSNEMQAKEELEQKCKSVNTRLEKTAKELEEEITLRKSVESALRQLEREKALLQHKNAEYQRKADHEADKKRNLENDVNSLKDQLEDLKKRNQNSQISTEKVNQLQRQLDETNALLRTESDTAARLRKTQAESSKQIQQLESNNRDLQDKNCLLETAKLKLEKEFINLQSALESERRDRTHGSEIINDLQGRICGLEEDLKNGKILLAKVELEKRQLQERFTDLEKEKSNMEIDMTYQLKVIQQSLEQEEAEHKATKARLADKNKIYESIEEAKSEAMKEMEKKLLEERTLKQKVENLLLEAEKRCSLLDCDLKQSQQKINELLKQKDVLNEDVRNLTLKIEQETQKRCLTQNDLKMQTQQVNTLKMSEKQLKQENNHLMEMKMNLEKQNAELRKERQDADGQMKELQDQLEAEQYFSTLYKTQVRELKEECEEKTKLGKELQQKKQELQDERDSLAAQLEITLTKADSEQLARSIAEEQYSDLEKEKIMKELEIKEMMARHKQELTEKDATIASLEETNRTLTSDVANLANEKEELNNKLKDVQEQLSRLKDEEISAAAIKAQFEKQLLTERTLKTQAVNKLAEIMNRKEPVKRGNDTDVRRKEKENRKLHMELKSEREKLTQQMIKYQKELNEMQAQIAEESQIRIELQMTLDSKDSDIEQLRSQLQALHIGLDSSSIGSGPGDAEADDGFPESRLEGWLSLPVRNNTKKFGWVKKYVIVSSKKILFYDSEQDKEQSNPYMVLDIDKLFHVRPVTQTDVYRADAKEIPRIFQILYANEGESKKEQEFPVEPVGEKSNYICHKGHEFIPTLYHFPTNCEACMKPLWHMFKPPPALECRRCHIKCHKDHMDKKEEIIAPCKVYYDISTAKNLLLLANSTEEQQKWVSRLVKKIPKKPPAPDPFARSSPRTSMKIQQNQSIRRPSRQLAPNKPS
row,Structure (SMILES),pIC50
1,"O=C(NC1CC2(C1)CC(c1n[nH]c(=O)c3ccccc13)C2)c1cnc2[nH]cnc2c1 [Example 310, N-((aR)-6-(4-oxo-3,4-dihydrophthalazin-1-yl)spiro[3.3]heptan-2-yl)-3H-imidazo[4,5-b]pyridine-6-carboxamide]",7.00 to 7.82
2,"CS(=O)(=O)N1CCc2c(C(=O)N[C@H]3CC4(C3)C[C@H](c3n[nH]c(=O)c5ccccc53)C4)csc2C1 (stereo partly drawn) [Example 276, 6-(methylsulfonyl)-N-((aR)-6-(4-oxo-3,4-dihydrophthalazin-1-yl)spiro[3.3]heptan-2-yl)-4,5,6,7-tetrahydrothieno[2,3-c]pyridine-3-carboxamide]",7.00 to 7.82
3,"O=C(NC1CC2(C1)CC(c1n[nH]c(=O)c3ccccc13)C2)c1cnn2cc(-n3ccccc3=O)ccc12 (stereo not drawn) [Example 169, N-((αR)-6-(4-oxo-3,4-dihydrophthalazin-1-yl)spiro[3.3]heptan-2-yl)-6-(2-oxopyridin-1(2H)-yl)pyrazolo[1,5-α]pyridine-3-carboxamide]",7.82 to 8.29
4,"O=C(NC1CC2(C1)CC(c1n[nH]c(=O)c3ccccc13)C2)c1ccn(-c2ccccc2)n1 (stereo not drawn) [Example 10, N-[6-(4-oxo-3,4-dihydrophthalazin-1-yl)spiro[3.3]heptan-2-yl]-1-phenyl-1H-pyrazole-3-carboxamide]",5.68 to 7.00
5,"O=C(NC1CC2(C1)CC(c1n[nH]c(=O)c3ccccc13)C2)c1cnn2cc(OCCN3CCC3)ccc12 [Example 186, 6-(2-(azetidin-1-yl)ethoxy)-N-((aR)-6-(4-oxo-3,4-dihydrophthalazin-1-yl)spiro[3.3]heptan-2-yl)pyrazolo[1,5-a]pyridine-3-carboxamide]",8.30 to 8.70
6,"Cc1sc(N2CC[C@@H](F)C2)nc1C(=O)N[C@H]1CC2(C1)C[C@H](c1n[nH]c(=O)c3ccccc31)C2 (stereo partly drawn) [Example 53, 2-((R)-3-fluoropyrrolidin-1-yl)-5-methyl-N-((aR)-6-(4-oxo-3,4-dihydrophthalazin-1-yl)spiro[3.3]heptan-2-yl)thiazole-4-carboxamide]",8.30 to 8.70
7,"[H][C@]1(c2n[nH]c(=O)c3ccccc32)C[C@]2(C[C@@H](NC(=O)c3cc4cc(OCc5ccccc5)ccc4[nH]3)C2)C1 (stereo partly drawn) [Example 319, 5-(benzyloxy)-N-((aR)-6-(4-oxo-3,4-dihydrophthalazin-1-yl)spiro[3.3]heptan-2-yl)-1H-indole-2-carboxamide]",7.00 to 7.82
8,"O=C1c2ccccc2CN1C1CC2(CC(c3n[nH]c(=O)c4ccccc34)C2)C1 [Example 457, 4-((aR)-6-(1-oxoisoindolin-2-yl)spiro[3.3]heptan-2-yl)phthalazin-1(2H)-one]",7.00 to 7.82
9,"O=C1N[C@@H](Cc2ccccc2)CN1[C@H]1CC2(C[C@H](c3n[nH]c(=O)c4ccccc43)C2)C1 (stereo partly drawn) [Example 458, 4-((aR)-6-((S)-4-benzyl-2-oxoimidazolidin-1-yl)spiro[3.3]heptan-2-yl)phthalazin-1(2H)-one]",5.68 to 7.00
10,"O=C(NC1CC2(C1)CC(c1n[nH]c(=O)c3ccccc13)C2)c1cnn2c(C3CC3)c(O)ccc12 (stereo not drawn) [Example 128, 7-cyclopropyl-6-hydroxy-N-((αR)-6-(4-oxo-3,4-dihydrophthalazin-1-yl)spiro[3.3]heptan-2-yl)pyrazolo[1,5-α]pyridine-3-carboxamide]",8.30 to 8.70
11,"COc1ccc(-c2ccc3c(C(=O)NC4CC5(C4)CC(c4n[nH]c(=O)c6ccccc46)C5)nn(CC(C)(C)O)c3c2)cc1 (stereo not drawn) [Example 153, 1-(2-hydroxy-2-methylpropyl)-6-(4-methoxyphenyl)-N-((αR)-6-(4-oxo-3,4-dihydrophthalazin-1-yl)spiro[3.3]heptan-2-yl)-1H-indazole-3-carboxamide]",8.30 to 8.70
12,"[H][C@]1(c2n[nH]c(=O)c3ccccc32)C[C@@]2(C[C@H](NC(=O)c3cnc4cc(N5CC[C@H](F)C5)ccn34)C2)C1 (stereo partly drawn) [Example 394, 7-((S)-3-fluoropyrrolidin-1-yl)-N-((aR)-6-(4-oxo-3,4-dihydrophthalazin-1-yl)spiro[3.3]heptan-2-yl)imidazo[1,2-a]pyridine-3-carboxamide]",8.70 to 9.70
13,"O=C(N[C@H]1CC2(C1)C[C@H](c1n[nH]c(=O)c3ccccc31)C2)c1cnn2cc(O[C@@H]3CCOC3)ccc12 (stereo partly drawn) [Example 121, N-((aR)-6-(4-oxo-3,4-dihydrophthalazin-1-yl)spiro[3.3]heptan-2-yl)-6-((tetrahydrofuran-3-yl)oxy)pyrazolo[1,5-a]pyridine-3-carboxamide]",8.70 to 9.70
14,"CC(=O)N1CCc2c(C(=O)N[C@H]3CC4(C3)C[C@H](c3n[nH]c(=O)c5ccccc53)C4)csc2C1 (stereo partly drawn) [Example 274, 6-acetyl-N-((aR)-6-(4-oxo-3,4-dihydrophthalazin-1-yl)spiro[3.3]heptan-2-yl)-4,5,6,7-tetrahydrothieno[2,3-c]pyridine-3-carboxamide]",7.82 to 8.29

# The next lines start with the values.
row,pIC50,Structure (SMILES)
1,7.82 to 8.29,"[H][C@]1(c2n[nH]c(=O)c3ccccc32)C[C@]2(C[C@@H](NC(=O)c3ccc(-c4cnn(C)c4)nc3)C2)C1 (stereo partly drawn) [Example 425, 6-(1-methyl-1H-pyrazol-4-yl)-N-((aR)-6-(4-oxo-3,4-dihydrophthalazin-1-yl)spiro[3.3]heptan-2-yl)nicotinamide]"
2,8.30 to 8.70,"CC(C)(O)Cn1nc(C(=O)NC2CC3(C2)CC(c2n[nH]c(=O)c4ccccc24)C3)c2ccc(F)cc21 [Example 31, 6-fluoro-1-(2-hydroxy-2-methylpropyl)-N-[(aR)-6-(4-oxo-3,4-dihydrophthalazin-1-yl)spiro[3.3]heptan-2-yl]-1H-indazole-3-carboxamide]"
3,8.30 to 8.70,"[H][C@]1(c2n[nH]c(=O)c3ccccc32)C[C@]2(C[C@@H](NC(=O)c3cc4cccc(Cl)c4[nH]3)C2)C1 (stereo partly drawn) [Example 328, 7-chloro-N-((aR)-6-(4-oxo-3,4-dihydrophthalazin-1-yl)spiro[3.3]heptan-2-yl)-1H-indole-2-carboxamide]"
4,8.30 to 8.70,"[H][C@]1(c2n[nH]c(=O)c3ccccc32)C[C@]2(C[C@@H](NC(=O)c3cnc4cc(OC(CF)CF)ccn34)C2)C1 (stereo partly drawn) [Example 433, 7-((1,3-difluoropropan-2-yl)oxy)-N-((aR)-6-(4-oxo-3,4-dihydrophthalazin-1-yl)spiro[3.3]heptan-2-yl)imidazo[1,2-a]pyridine-3-carboxamide]"
5,7.00 to 7.82,"[H][C@]1(c2n[nH]c(=O)c3ccccc32)C[C@]2(C[C@@H](NC(=O)c3ccc(C#N)c(C)n3)C2)C1 (stereo partly drawn) [Example 371, 5-cyano-6-methyl-N-((aR)-6-(4-oxo-3,4-dihydrophthalazin-1-yl)spiro[3.3]heptan-2-yl)picolinamide]"
6,8.30 to 8.70,"O=C(N[C@H]1CC2(C1)C[C@H](c1n[nH]c(=O)c3ccccc31)C2)N1CCc2cc(Br)ccc21 (stereo partly drawn) [Example 234, 5-Bromo-N-((aR)-6-(4-oxo-3,4-dihydrophthalazin-1-yl)spiro[3.3]heptan-2-yl)indoline-1-carboxamide]"
7,7.82 to 8.29,"CC(C)n1cc(-c2ccc3c(c2)CN(C(=O)NC2CC4(C2)CC(c2n[nH]c(=O)c5ccccc25)C4)C3)c(C(F)(F)F)n1 [Example 249, 5-(1-isopropyl-3-(trifluoromethyl)-1H-pyrazol-4-yl)-N-((aR)-6-(4-oxo-3,4-dihydrophthalazin-1-yl)spiro[3.3]heptan-2-yl)isoindoline-2-carboxamide]"
8,7.00 to 7.82,"[H][C@]1(c2n[nH]c(=O)c3ccccc32)C[C@]2(C[C@@H](NC(=O)c3ccc4[nH]c(C)nc4c3)C2)C1 (stereo partly drawn) [Example 309, 2-methyl-N-((aR)-6-(4-oxo-3,4-dihydrophthalazin-1-yl)spiro[3.3]heptan-2-yl)-1H-benzo[d] imidazole-5-carboxamide]"
9,8.30 to 8.70,"O=C(N[C@H]1CC2(C1)C[C@H](c1n[nH]c(=O)c3ccccc31)C2)c1onc2cc(Br)ccc12 (stereo partly drawn) [Example 284, 6-bromo-N-((aR)-6-(4-oxo-3,4-dihydrophthalazin-1-yl)spiro[3.3]heptan-2-yl)benzo[c]isoxazole-3-carboxamide]"
10,7.82 to 8.29,"O=C(NC1CC2(C1)CC(c1n[nH]c(=O)c3ccccc13)C2)N1CCc2cc(CCC(F)(F)F)ccc21 [Example 245, N-((aR)-6-(4-oxo-3,4-dihydrophthalazin-1-yl)spiro[3.3]heptan-2-yl)-5-(3,3,3-trifluoropropyl)indoline-1-carboxamide]"
11,7.00 to 7.82,"CC(C)(C)n1cc(C(=O)NC2CC3(C2)CC(c2n[nH]c(=O)c4ccccc24)C3)cn1 (stereo not drawn) [Example 9, 1-tert-butyl-N-[6-(4-oxo-3,4-dihydrophthalazin-1-yl)spiro[3.3]heptan-2-yl]-1H-pyrazole-4-carboxamide]"
12,8.30 to 8.70,"[H][C@]1(c2n[nH]c(=O)c3ccccc32)C[C@]2(C[C@@H](NC(=O)c3cc4cccc(O)c4[nH]3)C2)C1 (stereo partly drawn) [Example 327, 7-hydroxy-N-((aR)-6-(4-oxo-3,4-dihydrophthalazin-1-yl)spiro[3.3]heptan-2-yl)-1H-indole-2-carboxamide]"
13,7.82 to 8.29,"[H][C@]1(c2n[nH]c(=O)c3ccccc32)C[C@]2(C[C@@H](NC(=O)c3ccc4ccn(C)c4c3)C2)C1 (stereo partly drawn) [Example 367, 1-methyl-N-((aR)-6-(4-oxo-3,4-dihydrophthalazin-1-yl)spiro[3.3]heptan-2-yl)-1H-indole-6-carboxamide]"
14,8.30 to 8.70,"O=C(NC1CC2(C1)CC(c1n[nH]c(=O)c3ccccc13)C2)N1CCc2cc(-c3cnn(CC4CC4)c3)ccc21 [Example 241, 5-(1-(cyclopropylmethyl)-1H-pyrazol-4-yl)-N-((aR)-6-(4-oxo-3,4-dihydrophthalazin-1-yl)spiro[3.3]heptan-2-yl)indoline-1-carboxamide]"
15,7.82 to 8.29,"O=C(NC1CC2(C1)CC(c1n[nH]c(=O)c3ccccc13)C2)N1Cc2ccc(-c3cnn(C4CCOCC4)c3)cc2C1 [Example 251, N-((aR)-6-(4-oxo-3,4-dihydrophthalazin-1-yl)spiro[3.3]heptan-2-yl)-5-(1-(tetrahydro-2H-pyran-4-yl)-1H-pyrazol-4-yl)isoindoline-2-carboxamide]"
16,8.70 to 9.70,"[H][C@]1(c2n[nH]c(=O)c3ccccc32)C[C@]2(C[C@@H](NC(=O)c3ccc(-c4cn[nH]c4)c(C#N)c3)C2)C1 (stereo partly drawn) [Example 417, 3-cyano-N-((aR)-6-(4-oxo-3,4-dihydrophthalazin-1-yl)spiro[3.3]heptan-2-yl)-4-(1H-pyrazol-4-yl)benzamide]"
